Test results published in US11149037B2, “Pyrazole MAGL inhibitors” (H. Lundbeck A/S, priority 2017, dated 2021).

Columns and labels:
MAGL [1] = molecular target: MAGL (Homo sapiens (Human), UniProt Q99685); test: In vitro competitive activity-based protein profiling, human proteomes (prefrontal cortex or PC3 cell membrane fractions); type: biochemical; settings: human proteome; for inhibition at 1 µM: read-out: MAGL % inh. 1 μM (human); for inhibition at 10 µM: read-out: MAGL % inh. (human) @ 10 μM
Procedure: (§1) In Vitro Competitive Activity-Based Protein Profiling.
(§2) Proteomes (mouse brain membrane fraction or cell lysates for mouse assays; human prefrontal cortex or PC3 cell membrane fractions for human assays) (50 μL, 1.0 or 2.0 mg/mL total protein concentration) were preincubated with varying concentrations of inhibitors at 37° C. After 30 min, FP-Rh or JW912 or HT-01 (1.0 μL, 50 μM in DMSO) was added and the mixture was incubated for another 30 min at 37° C. Reactions were quenched with SDS loading buffer (15 μL-4×) and run on SDS-PAGE. Following gel imaging, serine hydrolase activity was determined by measuring fluorescent intensity of gel bands corresponding to MAGL and FAAH using ImageJ 1.43u software.

MAGL [2] = molecular target: MAGL (Mus musculus (Mouse), UniProt O35678); test: In vitro competitive activity-based protein profiling, mouse proteomes (brain membrane fraction or cell lysates); type: biochemical; settings: mouse proteome, read-out: MAGL % inh. 1 μM (mouse)
Procedure: as §1, §2

MAGL (Homo sapiens (Human), UniProt Q99685), sequence (Q99685 whole entry): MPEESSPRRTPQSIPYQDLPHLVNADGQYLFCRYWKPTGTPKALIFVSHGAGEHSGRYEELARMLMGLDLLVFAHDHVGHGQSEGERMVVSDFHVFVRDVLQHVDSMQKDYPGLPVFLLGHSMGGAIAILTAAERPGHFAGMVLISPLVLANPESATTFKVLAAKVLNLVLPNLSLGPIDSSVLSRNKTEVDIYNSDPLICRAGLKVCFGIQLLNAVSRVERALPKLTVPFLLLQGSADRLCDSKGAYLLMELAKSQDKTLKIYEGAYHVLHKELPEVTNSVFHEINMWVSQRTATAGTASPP
MAGL (Mus musculus (Mouse), UniProt O35678), sequence (O35678 whole entry): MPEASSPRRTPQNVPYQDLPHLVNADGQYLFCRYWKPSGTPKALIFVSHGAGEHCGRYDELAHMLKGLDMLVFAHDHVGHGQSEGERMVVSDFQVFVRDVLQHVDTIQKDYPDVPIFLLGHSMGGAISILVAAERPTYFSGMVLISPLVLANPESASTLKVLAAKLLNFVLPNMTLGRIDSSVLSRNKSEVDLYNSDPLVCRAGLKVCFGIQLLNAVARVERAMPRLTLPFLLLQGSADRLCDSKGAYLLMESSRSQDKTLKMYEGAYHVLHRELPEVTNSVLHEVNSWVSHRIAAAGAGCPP

SMILES | inhibition at 1 µM (MAGL [1]) [%] | inhibition at 1 µM (MAGL [2]) [%] | inhibition at 10 µM (MAGL [1]) [%] | IC50 (MAGL [1]) [µM]
C[C@H]1CN(C(=O)n2ccc(NS(C)(=O)=O)n2)CCN1Cc1ccc(Cl)c(N2CCCC2)c1 [Example 42, (S)-N-(1-(4-(4-Chloro-3-(pyrrolidin-1-yl)benzyl)-3-methylpiperazine-1-carbonyl)-1H-pyrazol-3-yl)methanesulfonamide] | > 75 | > 75 | – | –
CS(=O)(=O)Nc1ccn(C(=O)N2CCN(Cc3ccc(Cl)c(N4CC5CNCC5C4)c3)CC2)n1 (stereo not drawn) [Example 152, N-(1-(4-(4-Chloro-3-(hexahydropyrrolo[3,4-c]pyrrol-2(1H)-yl)benzyl)piperazine-1-carbonyl)-1H-pyrazol-3-yl)methanesulfonamide] | – | – | > 75 | –
CS(=O)(=O)Nc1ccn(C(=O)N2CCC3(CCN(Cc4ccccc4)C3)CC2)n1 [Example 165, N-(1-(2-Benzyl-2,8-diazaspiro[4.5]decane-8-carbonyl)-1H-pyrazol-3-yl)methanesulfonamide] | – | – | > 75 | –
CC(=O)Nc1ccn(C(=O)N2CCC3(CCN(Cc4cccc(C(F)(F)F)c4)C3)CC2)n1 [Example 175, N-(1-(2-(3-(Trifluoromethyl)benzyl)-2,8-diazaspiro[4.5]decane-8-carbonyl)-1H-pyrazol-3-yl)acetamide] | > 75 | > 75 | – | < 0.1
CN(Cc1ccc(Cl)c(N2CC3COCC3C2)c1)C1CCN(C(=O)n2ccc(NS(C)(=O)=O)n2)CC1 (stereo not drawn) [Example 177, N-(1-(4-((4-Chloro-3-(tetrahydro-1H-furo[3,4-c]pyrrol-5(3H)-yl)benzyl)(methyl)amino)piperidine-1-carbonyl)-1H-pyrazol-3-yl)methanesulfonamide] | > 75 | > 75 | – | –
C[C@H]1CN(Cc2ccc(C(F)(F)F)c(N3CC4COCC4C3)c2)CCN1C(=O)n1ccc(NS(C)(=O)=O)n1 (stereo partly drawn) [Example 178, N-(1-((2S)-2-Methyl-4-(3-(tetrahydro-1H-furo[3,4-c]pyrrol-5(3H)-yl)-4-(trifluoromethyl)benzyl)piperazine-1-carbonyl)-1H-pyrazol-3-yl)methanesulfonamide] | > 75 | > 75 | – | < 0.1
C[C@H]1CN(C(=O)n2ccc(NS(C)(=O)=O)n2)CCN1Cc1ccc(C(F)(F)F)c(N2CC3COCC3C2)c1 (stereo partly drawn) [Example 179, N-(1-((3S)-3-Methyl-4-(3-(tetrahydro-1H-furo[3,4-c]pyrrol-5(3H)-yl)-4-(trifluoromethyl)benzyl)piperazine-1-carbonyl)-1H-pyrazol-3-yl)methanesulfonamide] | > 75 | > 75 | – | < 0.1
C[C@@H]1CN(Cc2ccc(C(F)(F)F)c(N3CC4COCC4C3)c2)CCN1C(=O)n1ccc(NS(C)(=O)=O)n1 (stereo partly drawn) [Example 180, N-(1-((2R)-2-Methyl-4-(3-(tetrahydro-1H-furo[3,4-c]pyrrol-5(3H)-yl)-4-(trifluoromethyl)benzyl)piperazine-1-carbonyl)-1H-pyrazol-3-yl)methanesulfonamide] | > 75 | > 75 | – | < 0.1
CS(=O)(=O)Nc1ccn(C(=O)N2CCN(Cc3ccc(C(F)(F)F)c(N4CC5COCC5C4)c3)CC2)n1 (stereo not drawn) [Example 181, N-(1-(4-(3-(Tetrahydro-1H-furo[3,4-c]pyrrol-5(3H)-yl)-4-(trifluoromethyl)benzyl)piperazine-1-carbonyl)-1H-pyrazol-3-yl)methanesulfonamide] | > 75 | > 75 | – | < 0.1
CN(Cc1ccc(Cl)c(N2CCCC2)c1)C1(C)CCN(C(=O)n2ccc(NS(C)(=O)=O)n2)CC1 [Example 183, N-(1-(4-((4-Chloro-3-(pyrrolidin-1-yl)benzyl)(methyl)amino)-4-methylpiperidine-1-carbonyl)-1H-pyrazol-3-yl)methanesulfonamide] | > 75 | > 75 | – | –
C[C@@H]1CN(C(=O)n2ccc(NS(C)(=O)=O)n2)CCN1Cc1ccc(Cl)c(N2CC[C@H](F)C2)c1 [Example 203, N-(1-((R)-4-(4-Chloro-3-((S)-3-fluoropyrrolidin-1-yl)benzyl)-3-methylpiperazine-1-carbonyl)-1H-pyrazol-3-yl)methanesulfonamide] | > 75 | – | – | –
CS(=O)(=O)Nc1ccn(C(=O)N2CCC3(CCCN3Cc3ccc(Cl)cc3N3CCC(F)CC3)CC2)n1 [Example 204, N-(1-(1-(4-Chloro-2-(4-fluoropiperidin-1-yl)benzyl)-1,8-diazaspiro[4.5]decane-8-carbonyl)-1H-pyrazol-3-yl)methanesulfonamide] | > 75 | – | – | –
CS(=O)(=O)Nc1ccn(C(=O)N2CCC3(CCCN3Cc3ccc(Cl)cc3N3CC4COCC4C3)CC2)n1 (stereo not drawn) [Example 205, N-(1-(1-(4-Chloro-2-(tetrahydro-1H-furo[3,4-c]pyrrol-5(3H)-yl)benzyl)-1,8-diazaspiro[4.5]decane-8-carbonyl)-1H-pyrazol-3-yl)methanesulfonamide] | > 75 | – | – | –
CN(Cc1ccc(Cl)c(N2CCC(F)CC2)c1)C1CCN(C(=O)n2ccc(NS(C)(=O)=O)n2)CC1 [Example 206, N-(1-(4-((4-Chloro-3-(4-fluoropiperidin-1-yl)benzyl)(methyl)amino)piperidine-1-carbonyl)-1H-pyrazol-3-yl)methanesulfonamide] | > 75 | – | – | –
CC(=O)Nc1ccn(C(=O)N2CCN(Cc3ccc(-c4ccccc4)cc3C)C[C@@H]2C)n1 [Example 207, (S)-N-(1-(2-Methyl-4-((3-methyl-[1,1′-biphenyl]-4-yl)methyl)piperazine-1-carbonyl)-1H-pyrazol-3-yl)acetamide] | > 75 | – | – | –
CC(=O)Nc1ccn(C(=O)N2CCN(Cc3ccc(-c4ccccc4)cc3C)C[C@H]2C)n1 [Example 208, (R)-N-(1-(2-Methyl-4-((3-methyl-[1,1′-biphenyl]-4-yl)methyl)piperazine-1-carbonyl)-1H-pyrazol-3-yl)acetamide] | > 75 | – | – | < 0.1
CS(=O)(=O)Nc1ccn(C(=O)N2CCN(Cc3ccc(Cl)c(N4CCC(C#N)CC4)c3)CC2)n1 [Example 211, N-(1-(4-(4-Chloro-3-(4-cyano-piperidin-1-yl)benzyl)piperazine-1-carbonyl)-1H-pyrazol-3-yl)methane-sulfonamide] | > 75 | – | – | –
CS(=O)(=O)Nc1ccn(C(=O)N2CCN(Cc3ccc(Cl)c(F)c3)CC2)n1 [Example 212, N-(1-(4-(4-Chloro-3-fluorobenzyl)piperazine-1-carbonyl)-1H-pyrazol-3-yl)methane-sulfonamide] | > 75 | – | – | –
CC(C)C1CCN(c2cc(CN3CCN(C(=O)n4ccc(NS(C)(=O)=O)n4)CC3)ccc2Cl)CC1 [Example 213, N-(1-(4-(4-Chloro-3-(4-isopropyl-piperidin-1-yl)benzyl)piperazine-1-carbonyl)-1H-pyrazol-3-yl)methane-sulfonamide] | > 75 | – | – | –
CS(=O)(=O)Nc1ccn(C(=O)N2CCN(Cc3ccc(Cl)c(C(F)(F)F)c3)CC2)n1 [Example 214, N-(1-(4-(4-Chloro-3-(trifluoromethyl)benzyl)piperazine-1-carbonyl)-1H-pyrazol-3-yl)methane-sulfonamide] | > 75 | – | – | –
C[C@@H]1CN(C(=O)n2ccc(NS(C)(=O)=O)n2)CCN1Cc1ccc(Cl)c(C2CCCC2)c1 [Example 215, (R)-N-(1-(4-(4-Chloro-3-cyclopentyl-benzyl)-3-methyl-piperazine-1-carbonyl)-1H-pyrazol-3-yl)methane-sulfonamide] | > 75 | – | – | –
C[C@H]1CN(C(=O)n2ccc(NS(C)(=O)=O)n2)CCN1Cc1ccc(Cl)c(C2CCCC2)c1 [Example 216, (S)-N-(1-(4-(4-Chloro-3-cyclopentyl-benzyl)-3-methyl-piperazine-1-carbonyl)-1H-pyrazol-3-yl)methane-sulfonamide] | > 75 | – | – | –
CC(=O)Nc1ccn(C(=O)N2CCC(C)(N(C)Cc3ccc(Cl)c(C)c3)CC2)n1 [Example 217, N-(1-(4-((4-Chloro-3-methylbenzyl) (methyl)amino)-4-methyl-piperidine-1-carbonyl)-1H-pyrazol-3-yl)acetamide] | > 75 | – | – | –
CS(=O)(=O)Nc1ccn(C(=O)N2CCN(Cc3ccc(F)c(OC(F)(F)F)c3)CC2)n1 [Example 218, N-(1-(4-(4-Fluoro-3-(trifluoromethoxy)benzyl)piperazine-1-carbonyl)-1H-pyrazol-3-yl)methane-sulfonamide] | > 75 | – | – | –
CS(=O)(=O)Nc1ccn(C(=O)N2CCN(Cc3cccc(C(F)(F)F)c3Cl)CC2)n1 [Example 219, N-(1-(4-(2-Chloro-3-(trifluoromethyl)benzyl)piperazine-1-carbonyl)-1H-pyrazol-3-yl)methane-sulfonamide] | > 75 | – | – | –
Cc1c(CN2CCN(C(=O)n3ccc(NS(C)(=O)=O)n3)CC2)cccc1C(F)(F)F [Example 220, N-(1-(4-(2-Methyl-3-(trifluoromethyl)benzyl)piperazine-1-carbonyl)-1H-pyrazol-3-yl)methane-sulfonamide] | > 75 | – | – | –
CS(=O)(=O)Nc1ccn(C(=O)N2CCN(Cc3ccc(OC(F)F)c(OCC4CC4)c3)CC2)n1 [Example 221, N-(1-(4-(3-(Cyclopropyl-methoxy)-4-(difluoro-methoxy)benzyl)piperazine-1-carbonyl)-1H-pyrazol-3-yl)methane-sulfonamide] | > 75 | – | – | –
CS(=O)(=O)Nc1ccn(C(=O)N2CCN(Cc3ccc(F)c(Oc4ccccc4)c3)CC2)n1 [Example 222, N-(1-(4-(4-Fluoro-3-phenoxy-benzyl)piperazine-1-carbonyl)-1H-pyrazol-3-yl)methane-sulfonamide] | > 75 | – | – | –
